We go through 12 compounds from ChEMBL document CHEMBL1201862, “PubChem BioAssay data set” (2004).

Some test systems named below: HOP-92; NCI-H522; HCT-15; U-251; RXF 393; ACHN; M14; SF-268; TK-10; OVCAR-5; HT-29; SN12C; KM12; RPMI-8226; UACC-62; MOLT-4; SF-295; NCI-H226; HL-60.
Common to all, as to test: NCI tumour cell line growth inhibition, 48 h

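How tested: cells in 96-well plates exposed to compound for 48 hours at five concentrations. At the GI50, growth is halved.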 The source made the active and inactive calls. Cut-off read from the data, not from the text of the source: active = GI50 up to about 1.1 µM and inactive = higher.

For `Cc1cc(C)nc(NS(=O)(=O)c2ccc(Nc3c4ccccc4nc4c(C(=O)Nc5ccc(S(N)(=O)=O)cc5)cccc34)cc2)n1`, the GI50 with HOP-92 was 30.9 µM (inactive); with NCI-H522, 30.8 µM (inactive); with HCT-15, 47.1 µM; in the assay with U-251, 58.3 µM (inactive); in the assay on RXF 393, 38 µM (inactive); in the assay with ACHN it was > 100 µM (inactive). Besides, the GI50 in the assay with M14 was 71.6 µM (inactive); in the assay with SF-268, 50.9 µM (inactive); with TK-10 it was > 10 µM (inactive); in the assay on OVCAR-5, > 100 µM (inactive); in the assay on HT-29, > 100 µM (inactive); in the assay on SN12C it was > 100 µM (inactive). Further, the GI50 was 63.7 µM (inactive) in the assay on KM12; > 100 µM (inactive) in the assay with RPMI-8226; 66.1 µM (inactive) in the assay on UACC-62; > 100 µM (inactive) in the assay on MOLT-4; > 100 µM (inactive) with SF-295.

As to `CC(Oc1ccc(OCC2CCCCC2)cc1)C(=O)O` (stereo not drawn), the GI50 in the assay on NCI-H226 is > 100 µM (inactive); in the assay with HL-60, > 100 µM (inactive); in the assay with NCI-H522 it was > 100 µM (inactive); in the assay with HCT-15 it was above 100 µM; with U-251, > 100 µM (inactive); in the assay on ACHN, > 100 µM (inactive). Also, the GI50 with M14, in the assay with SF-268, with TK-10, in the assay with HT-29, with SN12C and in the assay on KM12 was > 100 µM (inactive) in each case. Also, the GI50 in the assay with UACC-62, with MOLT-4 and with SF-295 was > 100 µM (inactive) throughout.

`Cc1c(-c2coc(-c3ccc(Cl)cc3)n2)c(=O)n(-c2ccccc2)n1C`: the GI50 is > 100 µM (inactive) in the assay on NCI-H226; > 100 µM (inactive) with HL-60; > 100 µM (inactive) in the assay on HOP-92; > 100 µM (inactive) with NCI-H522; above 100 µM in the assay on HCT-15; > 100 µM (inactive) with U-251. In addition, the GI50 in the assay on ACHN, with M14, with SF-268, in the assay with TK-10, in the assay on OVCAR-5 and with HT-29 was > 100 µM (inactive) throughout. For the same compound, the GI50 in the assay with SN12C, in the assay on KM12, with RPMI-8226, in the assay with UACC-62, in the assay with MOLT-4 and with SF-295 was > 100 µM (inactive) each time.

On to `FC(F)(F)c1cc(Cl)cnc1N/N=C(/c1ccccc1)c1ccccn1`, for which the GI50 in the assay on NCI-H226 was 1.57 µM (inactive); with HOP-92 it was 1.81 µM (inactive); in the assay on NCI-H522, 1.57 µM (inactive); in the assay with HCT-15, 0.74 µM; with U-251, 3.62 µM (inactive); with RXF 393 it was 9.66 µM (inactive). In addition, the GI50 with ACHN is 2.92 µM (inactive); in the assay with M14 it was 0.719 µM (active); in the assay with SF-268, 0.78 µM (active); in the assay with OVCAR-5, 2 µM (inactive); in the assay with HT-29, 0.248 µM (active); in the assay with SN12C, 5.36 µM (inactive). For the same compound, the GI50 is 1.85 µM (inactive) with KM12; 4.11 µM (inactive) in the assay on RPMI-8226; 3.27 µM (inactive) with UACC-62; 1.31 µM (inactive) in the assay with MOLT-4; 2.16 µM (inactive) with SF-295.

On to `CCc1cccc(C(C)C)c1NC(=O)CCl`, for which the GI50 with NCI-H226 is > 100 µM (inactive); in the assay with HL-60, 22.4 µM (inactive); with HOP-92, > 100 µM (inactive); with NCI-H522 it was 35.6 µM (inactive); in the assay on HCT-15, above 100 µM; in the assay with U-251, 85.1 µM (inactive). Besides, the GI50 was 90.2 µM (inactive) with ACHN; 46.3 µM (inactive) in the assay on M14; > 100 µM (inactive) with SF-268; > 100 µM (inactive) in the assay on TK-10; > 100 µM (inactive) in the assay with HT-29; > 100 µM (inactive) in the assay on SN12C. The GI50 was > 100 µM (inactive) with KM12; > 100 µM (inactive) in the assay on RPMI-8226; 45.1 µM (inactive) with UACC-62; > 100 µM (inactive) in the assay with MOLT-4; > 100 µM (inactive) with SF-295.

Consider `CC(O)C(NC(=O)c1ccccc1)C(=O)N(Cc1ccccc1)Cc1ccccc1` (stereo not drawn), for which the GI50 in the assay on NCI-H226 was > 100 µM (inactive); in the assay with HL-60 it was 18.9 µM (inactive); in the assay with HOP-92, 75.9 µM (inactive); in the assay with NCI-H522 it was 7.03 µM (inactive); with HCT-15 it was above 100 µM; in the assay on U-251 it was > 100 µM (inactive). Further, the GI50 was > 100 µM (inactive) with ACHN; > 100 µM (inactive) in the assay on M14; > 100 µM (inactive) in the assay on SF-268; > 100 µM (inactive) in the assay with TK-10; > 100 µM (inactive) in the assay on OVCAR-5; > 10 µM (inactive) with HT-29. Also, the GI50 was > 100 µM (inactive) with SN12C; > 100 µM (inactive) with KM12; 28.9 µM (inactive) in the assay on RPMI-8226; > 100 µM (inactive) with UACC-62; 61.4 µM (inactive) in the assay with MOLT-4; 94.4 µM (inactive) with SF-295.

Take `c1ccc(C(c2ccccc2)c2ccncc2)cc1`: the GI50 in the assay on NCI-H226 was > 100 µM (inactive); in the assay with HCT-15 it was above 100 µM; in the assay with U-251, > 100 µM (inactive); in the assay with ACHN, > 100 µM (inactive); with M14 it was > 100 µM (inactive); in the assay on SF-268, > 100 µM (inactive). Further, the GI50 in the assay on TK-10 was > 100 µM (inactive); in the assay with OVCAR-5 it was > 100 µM (inactive); with HT-29, 75.9 µM (inactive); in the assay on SN12C, > 100 µM (inactive); in the assay on KM12, > 100 µM (inactive); in the assay with RPMI-8226 it was > 100 µM (inactive). The GI50 with UACC-62, in the assay on MOLT-4 and in the assay on SF-295 was > 100 µM (inactive) in each case.

As to `O=C1c2cccc3cccc(c23)C(=O)N1CCCNOCCONCCCN1C(=O)c2cccc3cccc(c23)C1=O`, the GI50 is 74.6 µM (inactive) in the assay on NCI-H226; 4.84 µM (inactive) in the assay on HL-60; 56 µM (inactive) with HOP-92; 44 µM in the assay on HCT-15; 59.7 µM (inactive) with U-251; 29.4 µM (inactive) with RXF 393. Further, the GI50 in the assay on ACHN is > 100 µM (inactive); in the assay on M14 it was 62.4 µM (inactive); in the assay on SF-268, 79.4 µM (inactive); in the assay with TK-10, > 100 µM (inactive); in the assay on OVCAR-5, > 100 µM (inactive); in the assay on HT-29, 92.5 µM (inactive). Moreover, the GI50 in the assay with KM12 was > 100 µM (inactive); in the assay with RPMI-8226, 16.9 µM (inactive); in the assay with UACC-62, > 100 µM (inactive); with MOLT-4 it was 12.1 µM (inactive); with SF-295, > 100 µM (inactive).

For the compound `CCOC(=O)NC/C=C/CO`, the GI50 in the assay with NCI-H226 was > 100 µM (inactive); with HL-60, > 100 µM (inactive); in the assay with NCI-H522, > 100 µM (inactive); with HCT-15 it was above 100 µM; with U-251, > 100 µM (inactive); in the assay with RXF 393, > 100 µM (inactive). Further, the GI50 in the assay with ACHN, with M14, in the assay with SF-268, with TK-10, in the assay on SN12C and in the assay with KM12 was > 100 µM (inactive) throughout. For the same compound, the GI50 in the assay with RPMI-8226, in the assay with UACC-62 and in the assay on MOLT-4 was > 100 µM (inactive) throughout.

Consider `Oc1cc2c(cc1O)-c1[nH]ncc1CC2`, for which the GI50 in the assay with NCI-H226 was 18.6 µM (inactive); in the assay with HL-60 it was 24.3 µM (inactive); in the assay with HOP-92 it was 14.4 µM (inactive); in the assay on NCI-H522, 11.7 µM (inactive); in the assay on HCT-15, 54.1 µM; in the assay with U-251, 18.2 µM (inactive). Moreover, the GI50 is 21.6 µM (inactive) with ACHN; 72.4 µM (inactive) with M14; 25.6 µM (inactive) in the assay with SF-268; 75 µM (inactive) with TK-10; 63.4 µM (inactive) in the assay with OVCAR-5; 37.6 µM (inactive) in the assay on HT-29. For the same compound, the GI50 in the assay on SN12C is 49 µM (inactive); with KM12, 49.5 µM (inactive); in the assay with UACC-62, 27.8 µM (inactive); with MOLT-4 it was 22.4 µM (inactive); in the assay on SF-295 it was 49.1 µM (inactive).

As to `[O-][n+]1onc2c1CCC(=N\O)/C2=N/Nc1ccccc1`, the GI50 with NCI-H226 was > 100 µM (inactive); with HL-60 it was 49.4 µM (inactive); in the assay with NCI-H522, > 100 µM (inactive); with HCT-15, above 100 µM; in the assay on RXF 393, > 100 µM (inactive); with ACHN, > 100 µM (inactive). Besides, the GI50 with M14, in the assay with SF-268, in the assay on TK-10, in the assay on OVCAR-5, in the assay with HT-29 and with SN12C was > 100 µM (inactive) each time. The GI50 with KM12, in the assay with RPMI-8226, in the assay on UACC-62, in the assay on MOLT-4 and with SF-295 was > 100 µM (inactive) each time.

In the case of `CC(=O)OC1CCC2C(=CCC3C2(C)C(=O)CC2(C)C(C4(C)OC(C(C)C)=CC4=O)C(O)CC32C)C1(C)C` (stereo not drawn), the GI50 was 75 µM (inactive) in the assay on NCI-H226; 41.3 µM (inactive) in the assay on HOP-92; 35.5 µM (inactive) with NCI-H522; 30.2 µM with HCT-15; 39.4 µM (inactive) with U-251; 40.7 µM (inactive) with ACHN. Also, the GI50 in the assay on M14 is 23.3 µM (inactive); with SF-268 it was 28.1 µM (inactive); in the assay with OVCAR-5, > 100 µM (inactive); with HT-29, 17.8 µM (inactive); with SN12C it was 54.5 µM (inactive); in the assay with KM12, > 10 µM (inactive). Besides, the GI50 in the assay with RPMI-8226 is 22 µM (inactive); in the assay with UACC-62, 19.1 µM (inactive); in the assay with MOLT-4 it was 32.4 µM (inactive).
